Measured values as given in patent US9771361B2, “Inhibitors of influenza viruses replication” (priority 2013, dated 2017).
“And” between values parts separate entries of the source, which are not always exact repeats. Equal values may be shown once. Where a name gives a salt, the structure may show the parent alone. Read-outs that look alike come from different tables or passages of the source. Marks after values point to notes of the source that are not given here.

Experiments:
influenza A strains = assay type: cell-based, influenza A virus
influenza A [1] = test system: influenza A; parameters: species or system mice; details: mouse, in vivo
influenza virus = test system: influenza virus; parameters: species or system mice; details: mouse, in vivo
influenza A [2] = assay type: in vivo, mice
[3] = test system: influenza A/Wisconsin/67/2005 (H3N2) challenge strain virus; parameters: species or system humans; details: human, in vivo
[4] = test system: Influenza A/Victoria/3/75 (H3N2) virus; assay type: in vivo, BALB/c mice
[5] = in vivo
influenza A virus = assay type: in vivo, mice
[6] = test system: influenza virus B/Mass/3/66; assay type: in vivo, Balb/c mice
influenza B virus = assay type: cell-based
[7] = test system: influenza A/Wisconsin/67/2005 (H3N2) challenge strain virus; parameters: species or system humans; details: human, in vivo; remark: listed apart in the source
[8] = test system: Influenza A/Vietnam/1203/2004 (H5N1) virus; parameters: species or system BALB/c mice; details: mouse, in vivo
[9] = test system: influenza A/Wisconsin/67/2005 (H3N2) challenge strain virus; parameters: species or system humans; details: human, in vivo; remark: listed apart in the source
[10] = test system: Influenza A/California/04/2009 (pndH1N1) virus; assay type: in vivo, BALB/c mice
[11] = human, in vivo
[12] = Conversion of free base Form A to hydrated form B with humidity/water activity; assay type: physicochemical; details: ambient temperature
[13] = Water activity tests: competition slurry of Form A seeded with Form F in IPA/water; assay type: physicochemical; details: Starting Forms A + F, Water Activity (aw) 0.9, Water wt % 2.80
[14] = test system: influenza virus A/PR/8/34; assay type: in vivo, Balb/c mice
[15] = Compound (1) 0 mg/kg, Oseltamivir 10 mg/kg, […]
[16] = 10 mg/kg per treatment, twice a day for 10 days starting 2 hours prior to virus exposure
[17] = treatment start +48 h, 10 mg/kg BID
[18] = treatment start +72 h, 10 mg/kg BID

Question: For O=C(O)[C@H]1C2CCC(CC2)C1Nc1nc(-c2c[nH]c3ncc(F)cc23)ncc1F (stereo partly shown) [Compound (1)], which “activity against all influenza A strains tested” value (influenza A strains) is on record?
Answer: The value was “potent activity”.

Question: What about the “reduction in lung viral titers” value (influenza A [1]) of the same compound?
Answer: The value was “robust, statistically significant reductions in lung viral titers”.

Question: And the “correlation between lung titer reduction and Cmin” value (influenza virus)?
Answer: The value was “clear correlation”.

Question: What about the “survival and BW loss” value (influenza A [2]; mouse, in vivo) of the same compound?
Answer: Its value is “complete survival and a dose-dependent reduction in BW loss”.

Question: What about the “Percent Body Weight Loss on Study Day 8” value (influenza A [2]; mouse, in vivo, 0.1 mg/kg) of the same compound?
Answer: Its value is −31.9%.

Question: And the “Percent Survival” value (influenza A [2]; mouse, in vivo, 0.1 mg/kg)?
Answer: The value was 0%.

Question: And the “Percent Body Weight Loss on Study Day 8” value (influenza A [2]; mouse, in vivo, 0.3 mg/kg)?
Answer: Its value is −30.4%.

Question: And the “Percent Survival” value (influenza A [2]; mouse, in vivo, 0.3 mg/kg)?
Answer: The value was 25%.

Question: What about the “Percent Body Weight Loss on Study Day 8” value (influenza A [2]; mouse, in vivo, 1 mg/kg) of the same compound?
Answer: The value was −16.8%.

Question: And the “Percent Survival” value (influenza A [2]; mouse, in vivo, 1 mg/kg)?
Answer: The value was 100%.

Question: What about the “Percent Body Weight Loss on Study Day 8” value (influenza A [2]; mouse, in vivo, 3 mg/kg) of the same compound?
Answer: Its value is −8.7%.

Question: And the “Percent Survival” value (influenza A [2]; mouse, in vivo, 3 mg/kg)?
Answer: Its value is 100%.

Question: And the “Percent Body Weight Loss on Study Day 8” value (influenza A [2]; mouse, in vivo, 10 mg/kg)?
Answer: Its value is −2.8%.

Question: What about the “Percent Survival” value (influenza A [2]; mouse, in vivo, 10 mg/kg) of the same compound?
Answer: The value was 100%.

Question: And the “rates of seroconversion versus placebo” value [3]?
Answer: The value was “no difference”.

Question: What about the Survivors/Total ([4]; mouse, in vivo) of the same compound?
Answer: Its Survivors/Total is 10/10***.

Question: And the “liver function abnormalities and serum phosphate decreases” value [5]?
Answer: The value was “Neither liver function abnormalities nor serum phosphate decreases were observed”.

Question: What about the protection (influenza A virus; mouse, in vivo) of the same compound?
Answer: The protection was “partial protection”.

Question: And the “protection from death and BW loss” value (influenza A virus; mouse, in vivo)?
Answer: Its value is “complete protection from death and reduced BW loss”.

Question: And the survival (influenza A virus; mouse, in vivo)?
Answer: Its survival is “complete survival”.

Question: And the “Percent Survival” value (influenza A virus; mouse, in vivo, 1 mg/kg)?
Answer: Its value is 100%.

Question: What about the “Penh (Day 6/7)” value ([6]; mouse, in vivo) of the same compound?
Answer: The value was 1.90 and 2.06 and 2.04.

Question: And the “Survival (21 days)” value ([6]; mouse, in vivo)?
Answer: The value was 0%.

Question: And the “Weight Loss (Day 8)” value ([6]; mouse, in vivo)?
Answer: Its value is 33.6% and 33.9% and 33%.

Question: What about the “activity against influenza B in vivo” value ([6]; mouse, in vivo) of the same compound?
Answer: Its value is “little activity”.

Question: And the “interference with the effectiveness of Oseltamivir” value ([6]; mouse, in vivo)?
Answer: Its value is “does not interfere with the effectiveness of Oseltamivir”.

Question: What about the “protection against morbidity, BW loss or loss of lung function” value ([6]; mouse, in vivo) of the same compound?
Answer: Its value is “no significant protection against morbidity, BW loss or loss of lung function”.

Question: And the “activity against influenza B virus” value (influenza B virus)?
Answer: The value was “limited activity”.

Question: And the “median AUC of influenza-like symptoms versus placebo” value [7]?
Answer: The value was “statistically significant reduction”.

Question: And the “median duration of composite clinical symptoms versus placebo” value [7]?
Answer: Its value is “statistically significant reduction”.

Question: And the “median duration of influenza-like symptoms versus placebo” value [7]?
Answer: Its value is “statistically significant reduction”.

Question: What about the protection [8] of the same compound?
Answer: The protection was “complete protection”.

Question: And the “AUC viral shedding versus pooled placebo” value [9]?
Answer: The value was “statistically significant reduction”.

Question: What about the “dose response trend in median AUC viral shedding in nasal swabs” value [9] of the same compound?
Answer: Its value is “statistically significant dose response trend”.

Question: What about the “improvement over placebo in viral shedding” value [9] of the same compound?
Answer: Its value is “a similar magnitude of improvement over placebo was not observed”.

Question: And the “peak viral shedding versus pooled placebo” value [9]?
Answer: Its value is “significant reductions”.

Question: And the Survivors/Total ([10]; mouse, in vivo)?
Answer: The Survivors/Total was 9/9*** and 10/10***.

Question: What about the “discontinuations and serious adverse events” value [11] of the same compound?
Answer: The value was “no discontinuations due to Compound (1)-related adverse events (AE) nor were there any serious adverse events”.

Question: And the “elevations in alanine aminotransferase (ALT)” value [11]?
Answer: Its value is “observed”.

Question: What about the “incidence of decreased blood phosphorus level” value [11] of the same compound?
Answer: Its value is 18.1%.

Question: And the “incidence of nasal congestion” value [11]?
Answer: Its value is 1.4%.

Question: And the incidence of rhinorrhea [11]?
Answer: The incidence of rhinorrhea was 4.2%.

Question: And the tolerability [11]?
Answer: The tolerability was “well tolerated”.

Question: Which “water activity where the hydrate form (form B) was observed” value [12] does the source give for O=C(O)[C@H]1C2CCC(CC2)[C@@H]1Nc1nc(-c2c[nH]c3ncc(F)cc23)ncc1F [Form A of Compound (1)] here?
Answer: Its value is “greater than 0.6”.

Question: For O=C(O)[C@H]1C2CCC(CC2)C1Nc1nc(-c2c[nH]c3ncc(F)cc23)ncc1F (stereo partly shown) [Form A of HCl salt of Compound (1).½H2O], which “Final Form” value [13] is on record?
Answer: Its value is “converted to Form F of HCl salt of Compound (1).3H2O”.

Question: Which results are given for CCOC(=O)C1=C[C@@H](OC(CC)CC)[C@H](NC(C)=O)[C@@H](N)C1 [Oseltamivir]?
Answer: Penh (Day 3) [14, 15]: 2.36; Survival (21 days) [14, 15]: 0%; Weight Loss (Day 8) [14, 15]: 32.0%; protection from death, BW loss and lung function ([14]; mouse, in vivo): did not protect from death reduce BW loss or restore lung function; survival (influenza A [2]; 10 mg/kg BID, same experiment): All of the oseltamivir-administered mice survived; Percent Body Weight Loss on Study Day 8 (influenza A [2]; mouse, in vivo, 10 mg/kg): −19.1%; Percent Survival (influenza A [2]; mouse, in vivo, 10 mg/kg): 100%; Survivors/Total [4, 16]: 9/10***; Percent Body Weight Loss on Study Day 8 (influenza A virus; mouse, in vivo, 10 mg/kg): −28.9%; Percent Survival (influenza A virus; mouse, in vivo, 10 mg/kg): 100%; Percent Body Weight Loss on Study Day 8 (influenza A virus; [17]): −31.1%; Percent Survival (influenza A virus; [17]): 80%; Percent Body Weight Loss on Study Day 8 (influenza A virus; [18]): −31.3%; Percent Survival (influenza A virus; [18]): 0%; Penh (Day 6/7) [6, 15]: 1.08; Survival (21 days) [6, 15]: 100%; Weight Loss (Day 8) [6, 15]: 12.8%; protection from death, BW loss and lung function ([6]; mouse, in vivo): complete protection from death, reduced BW loss and restored lung function; Survivors/Total [10, 16]: 10/10***
